We go through one compound from patent publication US20030203963A1, “Antimicrobial agent” (priority 2001, published 2003).

One assay deals with Salm Typhimurium S29. Description: Test in cooked minced chicken slurry. It is filed as cell-based, Salmonella Typhimurium. The settings on record: for Total inhibition for: minced chicken slurry at 8° C., pH 6.42, TCC010704. The method, then:
1 kg of minced chicken (mainly lean meat) was purchased from the local butcher. This was mixed with 1 litre of BHI, mixed and dispensed as 100 g samples prior to autoclaving. When still warm, the meat was re-mixed thoroughly. When cooked, the meat was inoculated with 1 ml of 10^5 spores or cells (from an overnight broth), and re-mixed. The samples were then divided into 3×25 g portions, to which 0.5 ml of filter-sterilised APP20010215 was added (as 5% or 10% stock solutions) or water. An initial viable count was taken, and the samples then incubated at 8° C. and tested twice weekly. The pH of the chicken slurry was 6.42.

A further assay concerns S. cerevisiae ATCC9763. Put plainly: Test in apple juice. It is filed as cell-based, Saccharomyces cerevisiae. The settings on record: 2000 ppm; apple juice (pH 3.42) at 25° C., TAJ010530. On the procedure: 8.9 ml apple juice samples (pH 3.42) were prepared and autoclaved. Batch number APP20010215 (at 138 mg/ml) was used to prepare filter-sterilised stock solutions for 1 ml addition to the juice to achieve 0, 1000, 2000 ppm APP. Tests were inoculated with 100 μl of an appropriately diluted overnight SLM broth of yeast culture or ascospore suspension of Byssochlamys spores prepared earlier. The tests were incubated at 25° C., and examined daily for signs of growth (e.g. turbidity, mycelium development).

Assay [1] concerns L. monocytogenes 272. Put plainly: Test in cooked minced beef slurry. The class given is cell-based, Listeria monocytogenes. On the procedure: (§1) 1 kg of minced beef, purchased from the local butcher, was mixed with 1 litre of BHI. 200 g portion of this meat slurry was autoclaved. When the meat had cooled, the pH was recorded (pH 6.24), and each pot was inoculated with 2.0 ml of 10^5 spores or cells and the meat re-mixed thoroughly. Each inoculated 200 g pot was distributed as 3×50 g portions. To each pot 1 ml of SDW, 5% or 10% APP (Batch No. APP20010215) was added, and the meat was again mixed thoroughly. An initial viable count was performed, the meat was incubated at 8° C. and sampled twice weekly. The pH of the cooked minced beef slurry was 6.24.

A further assay relates to Y. enterocolitica S16. Description: Bioscreen growth inhibition test. It is filed as cell-based, Yersinia enterocolitica. The settings on record: BS010510, 24 h/30, APP20010213. The method, then:
(§2) For broth cultures and Bioscreen testing most bacteria were grown in Brain Heart Infusion (BHI, Oxoid, pH 7.4). Lactobacillus sake A10 was grown in de Man, Rogosa, Sharpe medium ([…], Oxoid). Yeasts were grown in Sabouraud Liquid medium (SLM, Oxoid). Most bacteria were cultured at 30° C. Lactic acid bacteria were grown on solid medium in enriched CO2 atmosphere. Clostridium species were grown in Reinforced Clostridial Medium (RCM) at 37° C. anaerobically. Brochothrix thermosphacta fungi and yeasts were grown at 25° C. Fungi were cultured on Malt Extract Agar (MEA, Oxoid).
(§3) An automated Microbiology Reader Bioscreen C was used to measure growth curves of the strains in the presence and absence of APP. The Bioscreen C measures the development of turbidity (i.e. growth) kinetically by vertical photometry in 200 wells of a honeycomb microtitre plate, simultaneously. The system consists of a Bioscreen C analyser, which is an incubator and measurement unit, integrated with a PC, software (BioLink v 5.30), printer and a ‘Honeycomb 2’ cuvette multiwell plate. Growth curve data can be analysed within the BioLink software or exported to programs such as Excel.
(§4) Broth culture media were dispensed in 270 μl volumes into the wells as directed. […] (depending on the micro-organism under investigation) with readings taken every 20 minutes after the trays were shaken. […]

The subject of assay [2] is L. monocytogenes 272. Put plainly: Chicken soup trial at 20° C. The class given is cell-based, Listeria monocytogenes. The settings on record: chicken soup at 20° C., TCSM010430, APP20010213. From the text:
A local supermarket brand of cream of chicken soup was used as a model food system. 600 g packs were purchased from the local supermarket. This was a ‘fresh home-made type’ of soup that was stored in the chill cabinet, with a short shelf life. It was chosen because it is a rich, nutritious food system containing a range of food components including meat, dairy and vegetable.
Ingredients were labelled as: chicken stock (water, duck fat, chicken, salt, flavourings, yeast extracts, pork gelatine, glucose syrup, vegetable concentrate, milk protein, sugar, malto-dextrin, vegetable oil, citric acid, lactose, chicken fat), ilk, chicken (9%), cream (8%), onion, potato, vegetable oil, modified maize starch, wheat flour, lemon juice, salt, white pepper. pH 5.912. Protein: 3.3%; carbohydrate: 4.7%; fat: 7.2%; fibre: 0.2%; sodium: 0.1%
For the test the soup was mixed 2:1 in water (to facilitate sampling and mixing) and sterilised by autoclaving at 121° C. for 15 minutes. For each experiment the pH of the soup was recorded; this was between pH 5.79-5.88.
For TCS010430/20 (incubated at 20° C.) samples were prepared in 18.8 g quantities, to which 1 g of a suitable filter-sterilised APP stock solution was added and an appropriately diluted 0.2 ml inoculum. Great care was again taken to ensure homogeneous distribution of the APP and micro-organisms. […]

Another assay concerns Lb. sake A10. Description: Test in cooked minced beef slurry. It is filed as cell-based, Lactobacillus sake. On the procedure:
as §1

A further assay relates to B. cereus. Description: Test in milk. The class given is cell-based, Bacillus cereus. The settings on record: TMGB010605; for Control for: milk at 20° C. The method, then: 8.9 ml samples of UHT milk containing 0.5% glucose and the indicator bromocresol purple (0.01%) were prepared and sterilised by autoclaving. The pH before APP addition was pH 6.65. Appropriate stock solutions of APP batch number APP20010215 (at 138 mg/ml) were prepared and filter sterilised. 1 ml of each was added to the milk to prepare tests containing 0, 1000 and 2000 ppm APP. Tests were then inoculated with 100 μl of diluted overnight broth cultures or spore suspensions to give a final inoculum level of ca. 10^3 cfu/ml. These and uninoculated tests were incubated at 20 and 8° C. and examined daily for visible changes compared to uninoculated control.

In another assay the test system is Salmonella sp. S19. Description: Bioscreen growth inhibition test. The class given is cell-based. The settings on record: BS010510, 24 h/30, APP20010213. On the procedure:
as §2, §3, §4

Where [3] appears, read: 2000 ppm, minced beef slurry at 8° C., pH 6.24, TCM010619.

Turning to `O=C1CC(CO)OC=C1O` (stereo not drawn) [APP, Ascopyrone P], the results for the “Total inhibition for” value in the assay with Salm Typhimurium S29 (1000 ppm) and in the assay with Salm Typhimurium S29 (2000 ppm) were “Total inhibition by 1000 ppm for 25 d” and “Total inhibition by 2000 ppm for >40 d”, respectively. Also, the “Total inhibition (effect on growth of target organism by 2000 ppm APP)” value with Salm Typhimurium S29 (Cooked minced chicken slurry at 8° C. pH 6.42) is “S. Typhimurium”. Further, in the assay with S. cerevisiae ATCC9763, the “Growth controlled for” value came to 1 days. The Effect on growth entry in the assay on L. monocytogenes 272 [1] (setting [3]) was “No significant inhibition by 2000 ppm”; in the assay with L. monocytogenes 272 [2] (1000 ppm), “No significant effect by 1000 ppm”; with L. monocytogenes 272 [2] (2000 ppm), “No total inhibition but reduction of growth rate only by 2000”; with Lb. sake A10 (setting [3]) it was “No effect with 2000 ppm”. In addition, the “No inhibition (effect on growth of target organism by 2000 ppm APP)” value with L. monocytogenes 272 [1] (Cooked minced beef slurry at 8° C. pH 6.24, organism printed in brackets) is reported as “(L. monocytogenes)”; with Lb. sake A10 (Cooked minced beef slurry at 8° C. pH 6.24), “Lb. sake”. Also, the “APP level causing total inhibition” value amounted to 2000 ppm with Y. enterocolitica S16 and 4000 ppm in the assay with Salmonella sp. S19. For the same compound, the “Control for” value is 4 days in the assay on B. cereus (1000 ppm) and 6 days in the assay with B. cereus (2000 ppm). In addition, the Control of growth entry in the assay with B. cereus (2000 ppm, milk at 8° C.) is “No control observed”.
